“Also recorded” adds a separate entry of the source.
How the values were obtained:
[1] = tested on: CaCl2-induced carotid aneurysm; test: Quantitative autoradiography of carotid aneurysm, blocking study; format: in vivo, apoE−/− mice; conditions: autoradiography at 2 h
Protocol: Arterial aneurysm was induced by exposing the left common carotid artery of apolipoprotein E-deficient (apoE^−/−) mice to calcium chloride. Briefly, 4- to 6-wk-old female apoE^−/− mice (n=96; Jackson Laboratory) were fed high-cholesterol chow ad libitum. After 1 wk, the carotid arteries were exposed by blunt-end dissection under anesthesia. The left common carotid artery just below the carotid bifurcation was adventitially exposed to a 10% solution of CaCl2 for 20 min. The opposite carotid artery was exposed to normal saline and served as a control for imaging studies (Razavian, et al., 2010, J Nucl Med. 51(7):1107-15).
For autoradiography, the specimens were mounted on a board and placed in contact with to a reusable phosphor screen (MultiSensitive Phosphor Screen, PerkinElmer) along with standards of known activity. The screen was scanned in a phosphor imager system (Typhoon Trio, GE Healthcare Life Sciences) at a pixel size of 25×25 μm and images were analyzed using the Fiji software. Tracer uptake was quantified using a standard curve and expressed a % injected dose (ID)/pixel.
The tissues were placed on a phosphor screen (MultiSensitive Phosphor Screen, PerkinElmer) along with standards of known activity. […]

[2] = all tissues evaluated, but not the bile; 2 h
Protocol: To investigate biodistribution in apoE^−/− mice, animals at seven weeks after peri-adventitial application of CaCl2 or NaCl to carotid arteries were injected with 31±14 MBq (14±2 pg/kg) of ^99mTc-1, with (n=5) or without (n=6) pre-injection of an excess of the parent inhibitor 19 (23±8 ng/kg). Animals were kept under anesthesia for 60 min and blood samples were collected at various times post-injection. Tissue samples and body fluids were collected and weighed at 2 hours post-injection, and measured for their radioactivity by gamma-well counting (WIZARD2®, PerkinElmer). Data were expressed as percentage of injected dose (ID) per gram of tissue or mL of blood.
^99mTc-1 binding to carotid aneurysm and specificity in vivo were evaluated in apoE^−/− mice at seven weeks after peri-adventitial application of CaCl2 to left carotid arteries.

[3] = In vivo radiochemical stability, radio-HPLC of urine; design: species or system C57BL/6J mouse; conditions: urine collected 2 hours after intravenous injection
Protocol: (§1) Radiolabeling quality control was performed by reverse phase radio-HPLC analysis (HPLC system 2489, Waters) with a flow rate of 1 mL/min using an analytical column (JUPITER® 4 μm Proteo 90 Å, Phenomenex) with gradients of solvent A (0.16% ammonium formate in aqueous solution) and solvent B (0.16% ammonium formate in 90% acetonitrile). The HPLC gradients were programmed as follows: 10% B for 2 min, 10-70% B in 5 min, 5 min 70% B and 70-90% B in 5 min. In vitro and in vivo stability of the tracer were analyzed by radio-HPLC following in vitro incubation in mouse blood at 37° C. for up to 5 hours, and from urine collected at 2 hours after tracer injection, respectively.

[4] = Partition coefficient between n-octanol and water or Tris buffer; format: physicochemical; conditions: for logD: coligands Tricine-TPPTS
Protocol: Matrix metalloproteinase-targeted imaging agents known in the art suffer from poor solubility of their precursors and have blood clearance times that make them ill-suited for practical application. The partition coefficient (Log D) values of ^99mTc-1 and ^99mTc-RP805 were determined based on their proportional distribution between n-octanol and water or Tris buffer at pH 7.4. […] Compared with ^99mTc-RP805 and its precursor, the increased hydrophilicity of ^99mTc-1 (and 1) can in one aspect be ascribed to the introduction of arginine residue.

Aqueous solubility = format: physicochemical
[5] = Blood kinetics and biodistribution in C57BL/6J mice; conditions: mouse, in vivo; for blood pool activity: iv
Protocol: Biodistribution at 2 h post-injection (p.i.) and blood clearance were evaluated in C57Bl/6J mice injected with 16±5 MBq of ^99mTc-1 (n=6) or ^99mTc-RP805 (n=6). In vivo targeting to aneurysm and specificity of ^99mTc-1 was evaluated in high-fat fed apolipoprotein E-deficient mice, 4 weeks after carotid aneurysm induction through peri-adventitial application of CaCl2. The animals were injected with 31±14 MBq of ^99mTc-1 with (n=3) or without (n=4) pre-injection of non-labeled 1.

[6] = Radiochemical stability in mouse blood by radio-HPLC; format: in vitro ADME; conditions: in vitro incubation at 37° C. up to 5 hours
Protocol: Tracers were incubated in blood (200 μL) with gentle agitation (Thermo mixer, 1000 rpm) at 37° C. for 4 h. At 0, 2, and 4 h time points, 40 μL of blood sample were collected and centrifuged at 4° C. (3000 rpm, 20 min). 10 μL of the supernatant (plasma) were collected and diluted in methanol (90 μL). The sample was then vortexed for 30 s at room temperature and centrifuged at 4° C. (3000 rpm, 15 min). 50 μL of the supernatant were concentrated, filtered and analysed by radioHPLC or LC-MS.
as §1

[7] = tested on: suprarenal abdominal aorta (AAA); test: microSPECT/CT imaging of AAA in angiotensin II-infused mice; format: in vivo, apoE−/− mice
Protocol: In addition, sixteen weeks-old male apoE^−/− (n=16) were infused with human angiotensin II (Ang II, 1000 ng/kg/min, Calbiochem), delivered by a subcutaneous osmotic minipump (Model 2004, Alzet) implanted under anesthesia (isoflurane 2%).
Animals were imaged using a dedicated high resolution small animal imaging system (X-SPECT, GammaMedica), using one mm low energy (for ^99mTc) pinhole collimators. The spatial resolution of this system for ^99mTc in tomographic images with a 1-mm pinhole collimator and 4 cm radius of rotation was 1.1 mm full-width half-maximum. Radiotracer (1 mCi for mice) was injected through an intravenous catheter. Anesthetized mice (with isoflurane) were placed in a fixed position under the camera. Three point sources of known activity (˜1 μCi) were placed in the field of view, but outside the body, to quantify tracer uptake and to verify the accuracy of image fusions. […]
After completion of microSPECT images CT imaging was performed (energy: 75 kV/280 μA, matrix: 512×512) to identify anatomical structure. […] Images were analyzed using Xeleris Functional Imaging Workstation (General Electric, Waukesha, Wis.). […] Activities of each organ was expressed as % ID using the point sources. […]
RNA was isolated from aortic tissue using GenElute Mammalian Total RNA Miniprep Kit (Sigma-Aldrich) and reverse-transcribed using QuantiTect Reverse Transcription Kit (Qiagen). […]

[8] = Stability in saline / radiolabeling media by RP-HPLC; format: physicochemical; conditions: room temperature

SMILES: CC(C)C[C@H]1C(=O)N[C@H](C(=O)N[C@@H](CCCNC(=N)N)C(=O)NCCNC(=O)c2ccc(N[N]=[Tc]345([PH](c6cccc(S(=O)(=O)O)c6)(c6cccc(S(=O)(=O)O)c6)c6cccc(S(=O)(=O)O)c6)[O]CC(CO)(C[O]3)[N]4CC(=O)[O]5)nc2)Cc2ccc(cc2)OCCC[C@@H]1C(=O)NO [^99mTc-1]
- decrease in aneurysm-to-aorta uptake ratio under blocking conditions [1]: 1.8 fold
- decrease in carotid aneurysm tracer uptake on pre-injection of excess parent pan-MMP inhibitor ([1]; blocking vs no blocking): 4.6 fold
- tissue uptake by gamma well counting on pre-injection of parent pan-MMP inhibitor [2]: significantly reduced
- in vivo radiochemical stability (urine) [3]: high radiochemical stability
- logD ([4]; n-octanol/Tris buffer, Octanol/Tris (pH = 7.4)): -4.4 ± 0.1
- logD ([4]; n-octanol/water, Octanol/water): -4 ± 0.1
- logP ([4]; n-octanol/water, read-out: Log P n-octanol/water): -4 ± 0.1
- water solubility (in words) (Aqueous solubility): high water solubility
- hepatobiliary excretion: bile activity ([5]; 2 h): 1.5±0.3 % ID/g
- tissue uptake in control aorta ([5]; 2 h): 6.0±1.4 % ID/g
- blood pool activity ([5]; 1 h): 1.3±0.4 % ID/mL
- blood pool activity ([5]; 2 h): 1.0±0.4 % ID/mL
- radiochemical stability in mouse blood [6]: high radiochemical stability; also recorded: good stability; also recorded: single peak; also recorded: radiochemically stable
- left ventricle blood pool activity ([7]; AAA group): 0.14±0.10 cpv/MBq
- left ventricle blood pool activity ([7]; low remodeling group): 0.12±0.08 cpv/MBq
- stability in saline [8]: good stability

— US11286251B2, “Matrix metalloproteinase inhibitors and imaging agents, and methods using same” (Yale University, priority 2016, dated 2022)
